As usually defined, the EC50 is the midpoint of the concentration-response curve. Read a low EC50 as greater potency.

Where a name gives a salt, the structure may show the parent alone.

The target in this test is MC4R (Homo sapiens, UniProt P32245). Put plainly: β-arrestin assay (Pathhunter eXpress β-arrestin U2OS cell line). Format: cell-based. On the set-up: expressed in transfected cells; host or cells: U2OS (Pathhunter eXpress β-arrestin cell line). To be noted: U2OS cells, PK-tagged MC4R and EA-tagged β-arrestin, 37° C. for 90 minutes. From the text: The melanocortin receptor is a type of G-protein coupled receptor (GPCR) and regulates various physiological responses by transducing signals from many neurotransmitters. When GPCR is phosphorylated, β-arrestin is bound to the phosphorylated part of the receptor and plays an important role in activating various signaling pathways in cells through interaction with other proteins. It is known that, when the melanocortin receptor interacts with an agonist, β-arrestin is mobilized and is involved in the β-arrestin-mediated signaling pathway. Therefore, the activity of the melanocortin receptor can be evaluated through the measurement of β-arrestin.
Sequence of MC4R (P32245 whole entry, species assumed): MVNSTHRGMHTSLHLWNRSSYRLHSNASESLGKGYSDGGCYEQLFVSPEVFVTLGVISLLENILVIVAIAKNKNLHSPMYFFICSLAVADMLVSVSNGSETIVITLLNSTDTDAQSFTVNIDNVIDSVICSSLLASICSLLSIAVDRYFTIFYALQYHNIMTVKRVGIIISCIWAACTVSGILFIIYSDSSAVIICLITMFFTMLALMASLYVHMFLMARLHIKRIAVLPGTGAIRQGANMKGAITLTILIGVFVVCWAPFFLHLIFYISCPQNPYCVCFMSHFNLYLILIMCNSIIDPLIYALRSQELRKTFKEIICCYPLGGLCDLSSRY
Sequence of MC4R (P32121 whole entry partner, species assumed): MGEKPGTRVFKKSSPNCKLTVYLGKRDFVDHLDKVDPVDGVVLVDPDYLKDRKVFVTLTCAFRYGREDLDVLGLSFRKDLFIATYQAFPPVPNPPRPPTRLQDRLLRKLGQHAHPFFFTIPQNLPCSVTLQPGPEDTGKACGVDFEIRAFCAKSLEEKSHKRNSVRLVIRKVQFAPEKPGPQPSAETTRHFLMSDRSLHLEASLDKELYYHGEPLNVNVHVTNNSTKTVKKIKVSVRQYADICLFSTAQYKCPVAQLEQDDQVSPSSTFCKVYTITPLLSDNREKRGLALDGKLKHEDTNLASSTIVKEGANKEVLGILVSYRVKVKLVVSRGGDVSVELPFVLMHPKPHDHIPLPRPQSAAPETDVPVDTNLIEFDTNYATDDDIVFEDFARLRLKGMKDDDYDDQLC
A Pathhunter eXpress β-arrestin cell line (U2OS cell line) in which Prolink (PK)-tagged MC1R, MC3R, MC4R, MC5R and Enzyme acceptor (EA)-tagged β-arrestin were expressed together was established. When the MCR-PK portion of this cell line is activated, β-arrestin-EA is mobilized, and enzyme acceptor (EA) and Prolink (PK), which are the β-galactosidase enzyme fragments, interact. The activated enzyme hydrolyzes the substrate by β-galactosidase activity to produce a chemiluminescent signal, so that the activity can be measured. After the Pathhunter eXpress β-arrestin cell line (U2OS cell line) was incubated, the cells were inoculated into each well of the cell culture plate and incubated for 48 hours in a 37° C. incubator in the presence of 5% CO2. After the incubation, 5 μl of the sample diluted 5 times with buffer was added, the vehicle concentration was set to 1%, and the MC4R agonist compound diluted at each step concentration was added, followed by reaction at 37° C. for 90 minutes. The activity (%) of each agonist compound is expressed as 100% ×(average RLU value of sample−average RLU value of vehicle control)/(average maximum value of control ligand−average RLU value of vehicle control), and the value was analyzed by CBIS data analysis suite (ChemInnovation, CA).
`CC(C)(C)C(=O)N([C@H]1C[C@@H](C(=O)N2CCOCC2)N(C(=O)[C@@H]2CN(C(C)(C)C)C[C@H]2c2ccc(F)cc2F)C1)[C@H]1CC[C@@H](C)CC1` [Example 1, N-((3S,5S)-1-((3S,4R)-1-(tert-butyl)-4-(2,4-difluorophenyl)pyrrolidine-3-carbonyl)-5-(morpholine-4-carbonyl)pyrrolidin-3-yl)-N-((1s,4R)-4-methylcyclohexyl)pivalamide hydrochloride] displayed an EC50 of 8.02 nM. With `CC(C)C(=O)N([C@H]1C[C@@H](C(=O)N2CCOCC2)N(C(=O)[C@@H]2CN(C(C)(C)C)C[C@H]2c2ccc(F)cc2F)C1)[C@H]1CC[C@@H](C)CC1` [Example 2, N-((3S,5S)-1-((3S,4R)-1-(tert-butyl)-4-(2,4-difluorophenyl)pyrrolidine-3-carbonyl)-5-(morpholine-4-carbonyl)pyrrolidin-3-yl)-N-((1s,4R)-4-methylcyclohexyl)isobutyramide hydrochloride] the figure was 15 nM; with `CC(C)C(=O)N([C@H]1C[C@@H](C(=O)N2CCOCC2)N(C(=O)[C@@H]2CN(C(C)(C)C)C[C@H]2c2ccc(Cl)cc2F)C1)[C@H]1CC[C@@H](C)CC1` [Example 3, N-((3S,5S)-1-((3S,4R)-1-(tert-butyl)-4-(4-chloro-2-fluorophenyl)pyrrolidine-3-carbonyl)-5-(morpholine-4-carbonyl)pyrrolidin-3-yl)-N-((1s,4R)-4-methylcyclohexyl)isobutyramide hydrochloride], 4.5 nM.

`CC(C)(C)C(=O)N([C@H]1C[C@@H](C(=O)N2CCOCC2)N(C(=O)[C@@H]2CN(C(C)(C)C)C[C@H]2c2ccc(Cl)cc2F)C1)[C@H]1CC[C@@H](C)CC1` [Example 4, N-((3S,5S)-1-((3S,4R)-1-(tert-butyl)-4-(4-chloro-2-fluorophenyl)pyrrolidine-3-carbonyl)-5-(morpholine-4-carbonyl)pyrrolidin-3-yl)-N-((1s,4R)-4-methylcyclohexyl)pivalamide hydrochloride] had an EC50 of 4.2 nM. `CC1(C)CCC(N(C(=O)C(C)(C)C)[C@H]2C[C@@H](C(=O)N3CCOCC3)N(C(=O)[C@@H]3CN(C(C)(C)C)C[C@H]3c3ccc(Cl)cc3)C2)CC1` [Example 6, N-((3S,5S)-1-((3S,4R)-1-(tert-butyl)-4-(4-chlorophenyl)pyrrolidine-3-carbonyl)-5-(morpholine-4-carbonyl)pyrrolidin-3-yl)-N-(4,4-dimethylcyclohexyl)pivalamide hydrochloride] came in with an EC50 of 13 nM.

These data come from US20240190856A1, “MELANOCORTIN-4 RECEPTOR AGONIST” (LG CHEM, LTD., priority 2021, published 2024).
